Assay results published in article PMC5942844, “Identification and characterization of the Fasciola hepatica sodium- and chloride-dependent taurine transporter” (PLoS Neglected Tropical Diseases, 2018).
Where two headings read alike, the source gives them in different places.

Assays:
[1] = target: T1, F. hepatica taurine transporter (FhTauT) (Fasciola hepatica, UniProt A0A2R4LGM2); experiment: cell-based
T1 sequence (A0A2R4LGM2 1-647): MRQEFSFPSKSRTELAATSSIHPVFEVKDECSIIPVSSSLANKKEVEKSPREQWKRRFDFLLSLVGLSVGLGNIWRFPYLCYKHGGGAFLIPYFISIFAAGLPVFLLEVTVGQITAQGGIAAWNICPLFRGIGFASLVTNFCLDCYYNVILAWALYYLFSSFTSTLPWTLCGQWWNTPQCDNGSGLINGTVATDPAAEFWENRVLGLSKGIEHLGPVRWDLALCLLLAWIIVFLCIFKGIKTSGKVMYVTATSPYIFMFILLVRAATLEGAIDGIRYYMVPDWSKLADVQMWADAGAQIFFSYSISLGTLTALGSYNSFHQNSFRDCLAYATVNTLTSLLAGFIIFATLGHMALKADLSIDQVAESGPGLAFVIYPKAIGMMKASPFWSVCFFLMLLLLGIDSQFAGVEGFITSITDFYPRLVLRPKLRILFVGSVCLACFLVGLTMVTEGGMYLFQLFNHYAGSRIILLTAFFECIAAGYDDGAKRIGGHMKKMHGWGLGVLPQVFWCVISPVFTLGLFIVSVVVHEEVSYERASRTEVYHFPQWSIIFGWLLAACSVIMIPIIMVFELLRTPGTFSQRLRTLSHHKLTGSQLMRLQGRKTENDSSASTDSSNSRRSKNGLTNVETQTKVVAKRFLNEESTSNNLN
Experimental: (§1) Human embryonic kidney-293 (HEK293 (ATCC CRL-1573, LGC standards Wesel, Germany)) cells, were grown in Dulbecco`s modified Eagle medium (DMEM) supplemented with 10% fetal bovine serum (FCS Nuaille, France), 100 units/ml penicillin and 100 μg/ml streptomycin at 37°C and with 5% CO2 in a humidified incubator. Cells were transfected with plasmids encoding fluorescently tagged or untagged versions of F. hepatica (FhTauT) and H. sapiens (HsTauT) taurine transporter using Jet Prime transfection reagent (Polyplus-transfection, France). To generate monoclonal cell lines stably expressing the transporters, transfected cells were subjected to and selected with the concentration of 0.2 mg/ml geneticin (G418) for 10 days. Surviving cells forming colonies were separated and analyzed for membrane localization of transporters and transport of taurine. After the selection process cells were kept at 50 μg/ml G418 to keep the selection pressure.
(§2) For saturation uptake experiments, cells were plated the day before the experiment at a density of about 50,000 cells/well onto poly (D-lysine)-coated 48-well culture plates (CytoOne, USA). On the day of the experiment, cells were washed with prewarmed Krebs-HEPES buffer twice (KHB) (120 mM NaCl, 3 mM KCl, 2 mM CaCl2, 2 mM MgCl2, 20 mM glucose, 10 mM HEPES, pH 7.3). Then, cells were incubated in KHB containing tracer amounts (0.1 μM) of [^3H]taurine, (19.1 Ci/mmol) (Perkin Elmer, USA) together with increasing concentrations of non-labeled taurine 10 min. The reaction was terminated after 10 minutes by removing the medium followed by rapid rinsing of cells with ice-cold assay buffer. Subsequently, cells were lysed with 0.5 ml of 1% sodium dodecyl sulfate (SDS) and transferred into scintillation vials for liquid scintillation counting. Non-specific uptake was determined by incubating cells in the presence of the blocker β-alanine (100 mM) before and during the experiment and subtracted from uptake values. Data were fit to a Michaelis-Menten equation.
(§3) Chloride-free KHB was prepared to examine the chloride dependence of both, FhTauT and HsTauT using acetate salts instead of chloride salts. Likewise, NaCl was replaced by choline chloride to examine the sodium requirement. Uptake experiments were performed as described above using 0.1 μM [^3H]taurine in sodium- and chloride-free modified KHB, respectively, mixed with increasing amounts of NaCl containing KHB thereby varying Na^+ and respectively Cl^- concentration from 0–120 mM. The inhibition experiments were performed in analogous manner with 0.1 μM [^3H]taurine and the logarithmically spaced concentrations of inhibitors.

[2] = target: T2, human taurine transporter (HsTauT) (Homo sapiens, UniProt P31641); experiment: [3H]taurine uptake by HEK293 cells stably expressing the human taurine transporter; details: 0.1 μM [3H]taurine, 10 min
T2 sequence (P31641 1-620): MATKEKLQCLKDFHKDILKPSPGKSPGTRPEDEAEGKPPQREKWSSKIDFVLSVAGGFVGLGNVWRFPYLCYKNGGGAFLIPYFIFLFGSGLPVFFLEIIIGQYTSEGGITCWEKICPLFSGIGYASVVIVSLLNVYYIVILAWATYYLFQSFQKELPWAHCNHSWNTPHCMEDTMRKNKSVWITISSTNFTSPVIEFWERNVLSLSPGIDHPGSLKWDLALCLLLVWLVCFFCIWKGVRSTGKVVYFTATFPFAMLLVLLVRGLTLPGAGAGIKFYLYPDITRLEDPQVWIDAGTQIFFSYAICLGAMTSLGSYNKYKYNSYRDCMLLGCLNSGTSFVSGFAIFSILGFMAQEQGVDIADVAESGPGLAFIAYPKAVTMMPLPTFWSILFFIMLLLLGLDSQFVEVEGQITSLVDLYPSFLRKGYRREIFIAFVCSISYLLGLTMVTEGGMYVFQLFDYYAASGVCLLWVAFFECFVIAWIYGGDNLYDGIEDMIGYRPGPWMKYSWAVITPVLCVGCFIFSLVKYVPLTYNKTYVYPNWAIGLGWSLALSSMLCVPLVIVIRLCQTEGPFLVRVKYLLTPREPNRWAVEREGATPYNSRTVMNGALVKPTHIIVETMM
Experimental: as §1, §2, §3

taurine transporter = tested on: taurine transporter; parameters: method as in PMID 1435737; details: 100 μM β-alanine; cited from earlier work
[3] = target: T1, F. hepatica taurine transporter (FhTauT); experiment: [3H]GABA uptake by HEK293 cells expressing the F. hepatica taurine transporter; assay type: cell-based; details: 0.3 μM to 3 mM [3H]GABA, three minutes
Experimental: (§4) GABA uptake was assessed by incubating HEK293 cells (10^5/ well) stably expressing the human GABA-transporter-1 (HsGAT1, diamonds), the F. hepatica taurine transporter (FhTauT, circles) and the human taurine transporter (HsTauT, triangles) in KHB containing concentrations of [^3H]GABA covering the range of 0.3 μM to 3 mM for three minutes. The amount of labeled [^3H]GABA was kept constant and the specific activity was progressively diluted by the addition of unlabeled GABA (from 9 Ci/mmol to 9 Ci/mol). The reaction was stopped by the addition of ice-cold KHB followed by three rapid washes. Cells were detached and the accumulated radioactivity was determined by liquid scintillation counting.
(§5) Supplementary file pntd.0006428.s004.tif: S4 Fig [^3H]GABA uptake by the human GABA-transporter-1, the F. hepatica taurine transporter and the human taurine transporter. HEK293 cells (10^5/ well) stably expressing the human GABA-transporter-1 (HsGAT1, diamonds), the F. hepatica taurine transporter (FhTauT, circles) and the human taurine transporter (HsTauT, triangles) were incubated in the presence of the indicated concentrations of [^3H]GABA. The specific activity was progressively diluted by addition of unlabeled GABA (from 9 Ci/mmol to 9 Ci/mol). After three minutes the reaction was stopped and the accumulated radioactivity was determined by liquid scintillation counting. […]

[4] = tested on: taurine transporter (Slc6a6/TauT); details: read-out: reported KM for GABA; cited from earlier work
[5] = target: T2, human taurine transporter (HsTauT); experiment: [3H]GABA uptake by HEK293 cells expressing the human taurine transporter; assay type: cell-based; parameters: expressed in transfected cells; details: 0.3 μM to 3 mM [3H]GABA, three minutes
Experimental: as §4, §5

Row | SMILES | IC50 [1] [µM] | affinity lower than that of taurine [1] | less potent in inhibiting the F. hepatica than the human transporter ([1]; human, hek293 cells) [fold] | IC50 ([2]; IC50 for inhibition of [3H]taurine uptake) [µM] | inhibition of uptake (taurine transporter) | less potent in inhibiting the F. hepatica than the human transporter [1] | affinity lower than that of taurine ([1]; alternative substrates vs taurine) [fold] | IC50 ([1]; read-out: IC50 for inhibition of [3H]taurine uptake, 0.1 μM [3H]taurine, 10 min) [µM] | IC50 ([2]; read-out: IC50 for inhibition of [3H]taurine uptake) [µM] | uptake of [3H]GABA [3] | uptake of [3H]GABA ([3]; listed as [^3H]GABA) | Km [4] [µM] | uptake of [3H]GABA [5]
1 | NCCC(=O)O [β-alanine] | 713 ± 260 | about 50 fold | ~5 | 132 ± 54 | about 50% | – | – | – | – | – | – | – | –
2 | NCCCC(=O)O [GABA] | – | – | – | – | – | about 3 fold | ~350 | 5600 ± 900 | 1600 ± 500 | not of GABA | failed to detect any uptake | 1460 | failed to detect any uptake
